Data on nine compounds can be found in ChEMBL document CHEMBL1143673, “Benzothiophene selective estrogen receptor modulators with modulated oxidative activity and receptor affinity” (J Med Chem, 2007).

Assay [1] addresses T1, Estrogen receptor beta (Homo sapiens, UniProt Q92731). Briefly: Displacement of [3H]estradiol from human recombinant ERbeta relative to estradiol. (Displacement assays read how much labelled ligand stays bound in the presence of the test substance.)
Assay [2] deals with T1, Estrogen receptor beta. Briefly: Displacement of [3H]estradiol from human recombinant ERbeta.
The next assay has as its target T2, Estrogen receptor (Homo sapiens, UniProt P03372).
T2 sequence (P03372 whole entry): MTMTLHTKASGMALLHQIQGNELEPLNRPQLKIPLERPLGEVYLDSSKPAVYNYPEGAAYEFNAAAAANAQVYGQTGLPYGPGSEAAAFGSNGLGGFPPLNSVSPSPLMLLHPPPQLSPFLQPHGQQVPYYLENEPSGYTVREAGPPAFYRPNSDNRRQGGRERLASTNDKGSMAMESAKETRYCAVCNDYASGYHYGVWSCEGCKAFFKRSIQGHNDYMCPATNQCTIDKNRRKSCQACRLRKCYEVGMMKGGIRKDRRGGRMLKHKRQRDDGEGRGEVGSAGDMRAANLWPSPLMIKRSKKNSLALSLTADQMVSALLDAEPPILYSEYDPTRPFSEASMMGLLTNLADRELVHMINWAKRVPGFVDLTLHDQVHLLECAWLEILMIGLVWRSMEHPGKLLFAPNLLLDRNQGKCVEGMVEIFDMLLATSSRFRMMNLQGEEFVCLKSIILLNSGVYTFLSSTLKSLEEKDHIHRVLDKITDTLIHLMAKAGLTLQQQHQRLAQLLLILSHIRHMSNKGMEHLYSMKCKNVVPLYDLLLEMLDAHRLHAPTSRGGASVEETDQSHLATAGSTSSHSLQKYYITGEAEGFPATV

The species named for a further assay is Homo sapiens. Nature of the assay: Selectivity for human ERalpha over human ERbeta.

T1 sequence (Q92731 whole entry): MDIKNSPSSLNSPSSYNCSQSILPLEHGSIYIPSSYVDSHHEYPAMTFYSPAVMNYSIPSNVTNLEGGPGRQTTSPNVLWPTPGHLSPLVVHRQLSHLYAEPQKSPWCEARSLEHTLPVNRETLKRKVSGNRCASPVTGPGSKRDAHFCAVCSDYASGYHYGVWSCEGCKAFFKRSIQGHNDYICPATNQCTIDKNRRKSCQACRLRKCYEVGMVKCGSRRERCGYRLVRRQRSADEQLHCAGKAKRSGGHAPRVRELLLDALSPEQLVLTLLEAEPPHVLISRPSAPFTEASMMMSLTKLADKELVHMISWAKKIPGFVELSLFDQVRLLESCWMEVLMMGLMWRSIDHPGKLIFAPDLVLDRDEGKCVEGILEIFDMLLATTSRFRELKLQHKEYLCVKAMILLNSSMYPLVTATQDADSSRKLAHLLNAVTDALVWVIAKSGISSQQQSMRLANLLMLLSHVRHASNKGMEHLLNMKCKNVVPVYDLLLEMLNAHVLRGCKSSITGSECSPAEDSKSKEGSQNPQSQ

Consider `Oc1ccc2c(Oc3ccc(OCCN4CCCCC4)cc3)c(-c3ccc(F)cc3)sc2c1`, for which the relative binding affinity (RBA) on Estrogen receptor beta [1] worked out at 0.68. For the same compound, the values for the IC50 on Estrogen receptor beta [2] and against Estrogen receptor were 27.9 nM and 17.2 nM, respectively. Also, in the assay filed under Homo sapiens, the Ratio was 1.6.

For the compound `Oc1ccc2c(Oc3ccc(OCCN4CCCCC4)cc3)c(-c3ccc(NCCCl)cc3)sc2c1`, the relative binding affinity (RBA) on Estrogen receptor beta [1] was less than 0.01. In addition, the IC50 on Estrogen receptor beta [2] is greater than 1600 nM; at Estrogen receptor it was 35.6 nM. In addition, in the assay listed under Homo sapiens, the Ratio was greater than 50.

With `COc1ccc(-c2sc3cc(O)ccc3c2Oc2ccc(OCCN3CCCCC3)cc2)cc1`, on Estrogen receptor beta [1], the relative binding affinity (RBA) was found to be 0.25.

In the case of `Nc1ccc(-c2sc3cc(O)ccc3c2Oc2ccc(OCCN3CCCCC3)cc2)cc1`, on Estrogen receptor beta [1], the relative binding affinity (RBA) turned out to be 0.34. For the same compound, the 50% inhibitory concentration (IC50) at Estrogen receptor beta [2] turned out to be 48.6 nM; against Estrogen receptor, 19.3 nM. In the assay filed under Homo sapiens, the Ratio was 2.8.

As for `CS(=O)(=O)c1ccc(-c2sc3cc(O)ccc3c2Oc2ccc(OCCN3CCCCC3)cc2)cc1`, the relative binding affinity (RBA) at Estrogen receptor beta [1] came out at 0.009. Besides, the IC50 is 1800 nM at Estrogen receptor beta [2] and 27 nM against Estrogen receptor. In addition, the Ratio in the assay filed under Homo sapiens is 79.

With `O=C(CCl)Nc1ccc(-c2sc3cc(O)ccc3c2Oc2ccc(OCCN3CCCCC3)cc2)cc1`, the relative binding affinity (RBA) on Estrogen receptor beta [1] stood at 0.007. The IC50 on Estrogen receptor beta [2] turned out to be 2360 nM; against Estrogen receptor it was 666 nM. The Ratio in the assay listed under Homo sapiens amounted to 4.3.

On to `Oc1ccc2c(Oc3ccc(OCCN4CCCCC4)cc3)c(-c3ccccc3)sc2c1`, for which, at Estrogen receptor beta [1], the relative binding affinity (RBA) is 1. Further, the IC50 at Estrogen receptor beta [2] was 16.3 nM; against Estrogen receptor it was 10.9 nM. Moreover, in the assay filed under Homo sapiens, the Ratio worked out at 1.7.

Consider `Oc1ccc2c(Oc3ccc(OCCN4CCCCC4)cc3)c(-c3ccc(Br)cc3)sc2c1`, for which the relative binding affinity (RBA) at Estrogen receptor beta [1] worked out at 0.25. The results for the IC50 at Estrogen receptor beta [2] and against Estrogen receptor were 66.7 nM and 27 nM, respectively. Further, the Ratio in the assay listed under Homo sapiens is 2.8.

`Oc1ccc(-c2sc3cc(O)ccc3c2Oc2ccc(OCCN3CCCCC3)cc2)cc1`: the relative binding affinity (RBA) on Estrogen receptor beta [1] amounted to 1.77. For the same compound, the IC50 on Estrogen receptor beta [2] was found to be 9.6 nM.

The term IC50 denotes the concentration at which inhibition is half-maximal.
